ChEMBL document CHEMBL5143734, “Seco-Lupane Triterpene Derivatives Induce Ferroptosis through GPX4/ACSL4 Axis and Target Cyclin D1 to Block the Cell Cycle” (J Med Chem, 2022)

How the values were obtained:
Format in all cases: functional, cell-based
[1] = tested on: MCF7; experiment: Cytotoxicity against human MCF7 cells assessed as reduction in cell viability by CCK-8 assay
[2] = tested on: A549; experiment: Cytotoxicity against human A549 cells assessed as reduction in cell viability by CCK-8 assay
[3] = tested on: HepG2; experiment: Cytotoxicity against human HepG2 cells assessed as reduction in cell viability by CCK-8 assay
[4] = tested on: PC-3M; experiment: Cytotoxicity against human PC-3M cells assessed as reduction in cell viability by CCK-8 assay
[5] = tested on: PANC-1; experiment: Cytotoxicity against human PANC-1 cells assessed as reduction in cell viability by CCK-8 assay

| SMILES | IC50 [1] [µM] | IC50 [2] [µM] | IC50 [3] [µM] | IC50 [4] [µM] | IC50 [5] [µM] |
| --- | --- | --- | --- | --- | --- |
| C=C(C)[C@@H]1CC[C@]2(C(=O)OCCCCCCn3ccnc3CC)CC[C@]3(C)[C@H](C[C@@H](O)[C@@H]4[C@@]5(C)C(CC(=O)OC)OC(C)(C)C5CC[C@]43C)[C@@H]12 (stereo not given in full) | 34.5 | 24.1 | 16.9 | 19.6 | 18.5 |
| C=C(C)[C@@H]1CC[C@]2(C(=O)OCCCCCCCCCCn3cncn3)CC[C@]3(C)[C@H](C[C@H]4OC(=O)C[C@@H](O)[C@]5(C)[C@@H]4[C@@]3(C)CC[C@H]5C(=C)C)[C@@H]12 | 46.2 | 29.4 | 14.6 | 19.9 | 36.4 |
| C=C(C)[C@@H]1CC[C@]2(C(=O)OCCCn3ccnc3)CC[C@]3(C)[C@H](C[C@H]4OC(=O)C[C@@H](O)[C@]5(C)[C@@H]4[C@@]3(C)CC[C@H]5C(=C)C)[C@@H]12 | 48.6 | 55.5 | > 200 | 24.7 | 89.1 |
| C=C(C)[C@@H]1CC[C@]2(C(=O)OCCCCCn3ccnc3)CC[C@]3(C)[C@H](C[C@@H](O)[C@@H]4[C@@]5(C)C(CC(=O)OC)OC(C)(C)C5CC[C@]43C)[C@@H]12 (stereo not given in full) | 65.1 | 34.9 | 24.6 | 30.6 | 50 |
| C=C(C)[C@@H]1CC[C@]2(C(=O)OCCCCCn3ccnc3)CC[C@]3(C)[C@H](C[C@H]4OC(=O)C[C@@H](O)[C@]5(C)[C@@H]4[C@@]3(C)CC[C@H]5C(=C)C)[C@@H]12 | 45.6 | 25.2 | 16.1 | 11.8 | 32.3 |
| C=C(C)[C@@H]1CC[C@]2(C(=O)OCCCn3cnc(C)c3)CC[C@]3(C)[C@H](C[C@@H](O)[C@@H]4[C@@]5(C)C(CC(=O)OC)OC(C)(C)C5CC[C@]43C)[C@@H]12 (stereo not given in full) | 71.9 | 31.5 | 21.6 | 30.6 | 49.2 |
| C=C(C)[C@@H]1CC[C@]2(C(=O)OCCCCn3cnc(C)c3)CC[C@]3(C)[C@H](C[C@H]4OC(=O)C[C@@H](O)[C@]5(C)[C@@H]4[C@@]3(C)CC[C@H]5C(=C)C)[C@@H]12 | 45.3 | 20 | 16 | 15.5 | 29.2 |
| C=C(C)[C@@H]1CC[C@]2(C(=O)OCCCn3ccnc3C)CC[C@]3(C)[C@H](C[C@@H](O)[C@@H]4[C@@]5(C)C(CC(=O)OC)OC(C)(C)C5CC[C@]43C)[C@@H]12 (stereo not given in full) | 69.5 | 24.9 | 22.6 | 34.4 | 50.6 |
| C=C(C)[C@@H]1CC[C@]2(C(=O)OCCCn3cnc(C)c3)CC[C@]3(C)[C@H](C[C@H]4OC(=O)C[C@@H](O)[C@]5(C)[C@@H]4[C@@]3(C)CC[C@H]5C(=C)C)[C@@H]12 | 48.6 | 39.5 | 35.3 | 18.5 | 83.8 |
| C=C(C)[C@@H]1CC[C@]2(C(=O)OCCCCn3ccnc3C)CC[C@]3(C)[C@H](C[C@H]4OC(=O)C[C@@H](O)[C@]5(C)[C@@H]4[C@@]3(C)CC[C@H]5C(=C)C)[C@@H]12 | 77.6 | 48.4 | 27.8 | 30 | 56.5 |
| C=C(C)[C@@H]1CC[C@]2(C(=O)OCCCCCCn3ccnc3CC)CC[C@]3(C)[C@H](C[C@H]4OC(=O)C[C@@H](O)[C@]5(C)[C@@H]4[C@@]3(C)CC[C@H]5C(=C)C)[C@@H]12 | 48.8 | 14.6 | 3.59 | 12.9 | 17.5 |
| C=C(C)[C@@H]1CC[C@]2(C(=O)OCCCCCn3ccnc3CC)CC[C@]3(C)[C@H](C[C@@H](O)[C@@H]4[C@@]5(C)C(CC(=O)OC)OC(C)(C)C5CC[C@]43C)[C@@H]12 (stereo not given in full) | 45.5 | 25.9 | 14.1 | 23.9 | 26.8 |
| C=C(C)[C@@H]1CC[C@]2(C(=O)OCCCn3cc(CCN)c4ccccc43)CC[C@]3(C)[C@H](C[C@H]4OC(=O)C[C@@H](O)[C@]5(C)[C@@H]4[C@@]3(C)CC[C@H]5C(=C)C)[C@@H]12 | 11.8 | 7.21 | 1.78 | 6.28 | 9.59 |
| C=C(C)[C@@H]1CC[C@]2(C(=O)OCCCCn3cnc(C)c3)CC[C@]3(C)[C@H](C[C@@H](O)[C@@H]4[C@@]5(C)C(CC(=O)OC)OC(C)(C)C5CC[C@]43C)[C@@H]12 (stereo not given in full) | 65.6 | 35.4 | 19.9 | 25 | 38.9 |
| C=C(C)[C@@H]1CC[C@]2(C(=O)OCCCCCCCCCCBr)CC[C@]3(C)[C@H](C[C@H]4OC(=O)C[C@@H](O)[C@]5(C)[C@@H]4[C@@]3(C)CC[C@H]5C(=C)C)[C@@H]12 | 53.9 | 22 | 10.9 | 17.3 | 23.1 |
